In US20260325502A1, “COMPOSITION FOR PREVENTING OR TREATING CANCER PAIN” (MARUISHI PHARMACEUTICAL CO., LTD., priority 2023, published 2026):
Entries after “also recorded” stand apart in the source; their conditions may differ.

What was measured:
[1] = system: mice; test: Measurement of spontaneous locomotor activity (Supermex); format: in vivo, mouse, ICR
Method: Five-to six-week-old male ICR-SPF mice (Japan SLC, Inc.) were divided into 5 groups of 8 mice each: a control group (with administration of distilled water (trade name: Otsuka Distilled Water) manufactured by Otsuka Pharmaceutical Factory, Inc.), two 10 mg/kg compound A administration groups, and two 30 mg/kg compound A administration groups, as shown in Table 2 below. Compound A or distilled water at a dose of 10 mL/kg was orally administered to the mice. One or three hours after the administration of compound A or distilled water, the mice were transferred to a measurement cage, and spontaneous locomotor activity was measured for 30 minutes using Supermex (registered trademark) (Muromachi Kikai Co., Ltd.).

[2] = system: cancer pain model rats (MRMT-1 rat breast cancer cells, bone metastasis model); test: Measurement of pain threshold in bone metastasis cancer pain model rats (Dynamic Plantar Aesthesiometer); format: in vivo, Crl:CD (SD); conditions: 10 mg/kg and 30 mg/kg, oral
Method: Five-week-old female Crl:CD (SD) SPF rats (Charles River Japan) were injected with MRMT-1 cells (rat breast cancer cells) at 3×10^4 cells/20 μL/body into the medullary cavity at the proximal end of the diaphysis of the right tibia to create a bone metastasis model (day 0). On day 10 after the transplantation of the cancer cells (day 10), the rats were divided into 4 groups of 8 rats each: a control group (with administration of distilled water (trade name: Otsuka Distilled Water) manufactured by Otsuka Pharmaceutical Factory, Inc.), a 10 mg/kg compound A administration group, a 30 mg/kg compound A administration group, and a morphine administration group, as shown in Table 1 below. On day 11 after the transplantation of the cancer cells (day 11), each drug was orally or subcutaneously administered to the rats at a dose of 2 mL/kg. The pain threshold (g) of the plantar surface of the right hind paw was measured using a Dynamic Plantar Aesthesiometer (37450, Ugo Basile) under blinded conditions 1, 3, 6, and 24 hours after the administration. The average value of the pain threshold-time area under the curve (AUC) (g·hr) for 24 hours post-administration was determined for each group.

[3] = system: rats; test: Measurement of coordinated motor ability (rotarod); format: in vivo, rat, SD
Method: Five- to six-week-old male SD-SPF rats (Japan SLC, Inc.) were used in this experiment. The experimental schedule included training using a rotarod (SN445, Shinano Seisakusyo) for 3 days (6 times a day), starting from 3 days before the day of administration. On the day of administration, pre-values (time to stay on the rotarod before the administration of compound A or distilled water) were measured twice, and the rats that spent 180 seconds or more on the rotarod in either of the two measurements were selected. The rats were divided into 3 groups of 6 rats each: a control group (with administration of distilled water (trade name: Otsuka Distilled Water) manufactured by Otsuka Pharmaceutical Factory, Inc.), a 10 mg/kg compound A administration group, and a 30 mg/kg compound A administration group, as shown in Table 3 below. Compound A or distilled water was orally administered to the rats at a dose of 10 mL/kg, and the time to stay on the rotarod was measured 1, 3, 6, and 24 hours after the administration under the test conditions of 10 rotations/min with a cutoff of 180 seconds.

[4] = system: serotonin 3 receptor; conditions: Patent Literatures 1 and 2; cited from earlier work
[5] = system: central nervous system; conditions: rats; Table 2 in Non-Patent Literature 9; cited from earlier work
[6] = system: cancer pain animal models; conditions: pregabalin; Non-Patent Literature 2; cited from earlier work
[7] = Non-Patent Literatures 2 and 8; cited from earlier work
[8] = summary of Experiments 1 and 2, 10 to 30 mg/kg

Row | Compound | changes in spontaneous locomotor activity compared to control group ([1]; 10 mg/kg and 30 mg/kg, oral, 1 or 3 h after administration, measured for 30 min, Dunnett's test, critical value of 5%, n = 8, FIG. 2) | suppression of spontaneous locomotor activity at a dose that induces an analgesic effect [1, 8] | cancer pain threshold compared to control group ([2]; single dose, right hind paw, measured 1, 3, 6 and 24 h after administration, Dunnett's test, critical value of 1%, n = 8, FIG. 1) | pain threshold-time area under the curve (AUC) compared to subcutaneous morphine ([2]; versus morphine 3 mg/kg subcutaneous, up to 24 h after administration) | changes in coordinated motor ability (time to stay on the rotarod) compared to control group ([3]; 10 mg/kg and 30 mg/kg, oral, 1, 3, 6 and 24 h after administration, 10 rotations/min, cutoff 180 s, Dunnett's or Steel's test, critical value of 5%, n = 6, FIG. 3) | suppression of coordinated motor ability at a dose that induces an analgesic effect [3, 8] | activity at serotonin 3 receptor [4] | influence on central nervous system relative to analgesic dose [5] | effect in cancer pain animal models [6] | side effects [7]
1 | NC1CCN(c2cccc(Cl)n2)CC1 [compound A, 1-(6-chloropyridin-2-yl) piperidin-4-amine] | No statistical difference was observed; also recorded: no significant changes | does not suppress spontaneous locomotor activity | significant difference was observed; also recorded: significantly increased | no statistically significant difference | No statistically significant difference was observed; also recorded: no significant changes | does not suppress spontaneous locomotor activity or coordinated motor ability | serotonin 3 receptor agonist | – | – | –
2 | CC(C)C[C@H](CN)CC(=O)O [Pregabalin] | – | – | – | – | – | – | – | suppresses the functions of the central nervous system (inhibits coordinated motor ability) at a dose lower than that is required to exert an analgesic effect | effective in cancer pain animal models | sedative effects such as dizziness, drowsiness, and loss of consciousness
